Several values for one entry are separate records, joined by “and”; a condition that tells them apart may be missing. Equal entries are not always repeated. Where two headings read alike, the source gives them in different places. One block for each compound: values may come before it.
How the values were obtained:
[1] = system: panel of 60 cancer cell lines; assay: cells; details: Homo sapiens, read-out: MG_MID GI50
[2] = system: Breast cancer; assay: cells; details: Homo sapiens; for GI50: read-out: MG_MID GI50; for CC50: read-out: MG_MID LC50
[3] = system: SK-MEL-2; assay: NCI-60 SRB screen; details: SK-MEL-2, 48 h; for GI50 / CC50: Homo sapiens; for CC50: read-out: LC50, SK-MEL-2, 48 h
[4] = system: SNB-75; assay: NCI-60 SRB screen; details: SNB-75, 48 h; for CC50: read-out: LC50, SNB-75, 48 h
[5] = system: HCT-116; details: HCT-116, 48 h
[6] = system: KM12; assay: NCI-60 SRB screen; details: KM12, 48 h
[7] = system: OVCAR-8; assay: cells; details: Homo sapiens, OVCAR-8, 48 h; for CC50: read-out: LC50, OVCAR-8, 48 h
[8] = system: DU-145
[9] = system: OVCAR-4
[10] = system: MCF-7; assay: [3H]-thymidine incorporation assay; assay type: cell-based; details: Homo sapiens, MCF7; MCF-7, 24 h of treatment
Description: (§1) Another method of assessing the cytotoxic effects of tested compounds, [^3H]-thymidine incorporation assay, was applied. This method provided the capability to analyze the antiproliferative activity of novel structures on MCF-7 and MDA-MB-231 through their ability to incorporate thymidine into the cells. The acquired results further confirmed the potent activity of the 14b compound as the most prominent structure among the novel compounds (Table 2). The test was carried out in triplicate at concentrations of 5, 15, and 30 μM for the MDA-MB-231 cell line and 1, 5, and 10 μM for the MCF-7 cell line.
(§2) Following the selection of cell lines for further study, the effects of all compounds on cell proliferation were evaluated on MCF-7 and MDA-MB-231 cell lines. Cells were seeded in 24-well plates and cultured as described above. Cells were treated with the compounds at concentrations 1, 5, and 10 μM, and 5, 15, and 30 μM for MCF-7 and MDA-MB-231 cell lines, respectively, for 24 h. Subsequently, 0.5 μCi [^3H]-thymidine was added for 4 h at 37 °C. Then, plates with cells were placed on the ice, the liquid was aspirated, and cells were washed twice with 1mL of 0.05 M Tris-HCl buffer comprising 0.11 M NaCl and precipitated by adding 1 mL per well of 5% trichloroacetic. After precipitation, the cells were dissolved with 1 mL of 0.1 M NaOH with 1% SDS (Sigma-Aldrich, St. Louis, MO, USA) at room temperature (RT). The cell lysates were transferred into scintillation vials containing 2 mL of scintillation fluid (Ultima Gold™ XR, PerkinElmer, MA, USA), and cell-associated radioactivity was measured using a Scintillation Counter 1900 TR, TRI-CARB (Packard, Perkin Elmer, Inc., San Jose, CA, USA). The [^3H]-thymidine uptake was expressed as a percentage of the control value.

[11] = system: MDA-MB-231; assay: [3H]-thymidine incorporation assay; assay type: cell-based; details: Homo sapiens; MDA-MB-231, 24 h of treatment
Description: as §1, §2

[12] = system: EKVX; assay: NCI-60 SRB screen; details: 48 h; for CC50: read-out: LC50, EKVX, 48 h
[13] = system: CNS cancer; details: CNS cancer subpanel
[14] = system: PC-3; details: PC-3, 48 h
[15] = system: HOP-62; assay: NCI-60 SRB screen; details: for TGI / GI50: HOP-62, 48 h; for GI50: Homo sapiens
[16] = system: SF-539; details: for TGI: SF-539, 48 h; for growth GP: SF-539, 10 μM, 48 h
[17] = system: M14; assay: NCI-60 SRB screen; details: M14, 48 h; for GI50 / CC50: Homo sapiens; for CC50: read-out: LC50, M14, 48 h
[18] = system: TK-10; assay: cells; details: Homo sapiens, TK-10, 48 h; for CC50: read-out: LC50, TK-10, 48 h
[19] = system: OVCAR-4; assay: cells; details: Homo sapiens, OVCAR-4, 48 h; for CC50: read-out: LC50, OVCAR-4, 48 h
[20] = system: MOLT-4; assay: cells; details: Homo sapiens, MOLT-4, 48 h; for CC50: read-out: LC50, MOLT-4, 48 h
[21] = system: HCT-116; assay: cells; details: Homo sapiens, HCT-116, 48 h
[22] = system: SNB-19; assay: NCI-60 SRB screen; details: for GI50 / CC50: Homo sapiens; for GI50 / CC50 / TGI: SNB-19, 48 h; for CC50: read-out: LC50, SNB-19, 48 h
[23] = system: IGROV1; assay: NCI-60 SRB screen; details: for GI50 / CC50: Homo sapiens, IGROV-1, 48 h; for GI50 / TGI: IGROV1, 48 h; for CC50: read-out: LC50, IGROV1, 48 h
[24] = system: CCRF-CEM; details: 48 h
[25] = system: DU-145; assay: cells; details: Homo sapiens, DU-145, 48 h; for CC50: read-out: LC50, DU-145, 48 h
[26] = system: HCT-15; assay: NCI-60 SRB screen; details: HCT-15, 48 h
[27] = system: Prostate Cancer; assay: cells; details: Homo sapiens, read-out: MG_MID GI50

SMILES: O=C(O)C(c1ccccc1)N1C(=O)/C(=C/C=C/c2ccc([N+](=O)[O-])o2)SC1=S (stereo not drawn) [9b, 2-((Z)-5-((E)-3-(5-Nitrofuran-2-yl)allylidene)-4-oxo-2-thioxothiazolidin-3-yl)-2-phenylacetic acid]
GI50 [1]: 9.03 µM
GI50 [2]: 5.89 µM
CC50 [2]: 49.4 µM
GI50 [3]: 5.64 µM
CC50 [3]: 49.2 µM
TGI [3]: 19.7 µM
GI50 ([4]; Homo sapiens): 2.11 µM
CC50 ([4]; Homo sapiens): 27.9 µM
TGI [4]: 7.39 µM
TGI [5]: 8.14 µM
GI50 ([6]; Homo sapiens): 6.66 µM
TGI [6]: 20.6 µM
GI50 [7]: 11.1 µM
CC50 [7]: 58.5 µM
TGI ([8]; DU-145, 48 h): 23.7 µM
TGI ([9]; OVCAR-4, 48 h): 28.0 µM
IC50 [10]: 7.98 µM
IC50 [11]: 7.53 µM
TGI [12]: 28.1 µM
GI50 ([12]; Homo sapiens): 14.3 µM
CC50 ([12]; Homo sapiens): 55.1 µM
MG_MID TGI [13]: 21.7 µM
TGI [14]: 29.9 µM
TGI [15]: 44.5 µM
GI50 [15]: 13.1 µM
TGI [16]: 24.7 µM
GI50 [17]: 12.6 µM
CC50 [17]: 58 µM
TGI [17]: 27.0 µM
GI50 [18]: 16.1 µM
CC50 [18]: 55.9 µM
GI50 [19]: 13.9 µM
CC50 [19]: 56.1 µM
GI50 [20]: 12.1 µM
CC50 [20]: > 100 µM
GI50 [21]: 2.68 µM
CC50 ([21]; read-out: LC50, HCT-116, 48 h): > 100 µM
GI50 [22]: 13.5 µM
CC50 [22]: 51.4 µM
TGI [22]: 26.3 µM
GI50 [23]: 14.3 µM
CC50 [23]: 66.6 µM
TGI [23]: 30.8 µM
TGI [24]: 13.3 µM
GI50 [25]: 11.5 µM
CC50 [25]: 48.8 µM
TGI [26]: 22.9 µM
GI50 ([26]; Homo sapiens): 7.73 µM
CC50 ([26]; Homo sapiens, read-out: LC50, HCT-15, 48 h): 59 µM
GI50 [27]: 12.5 µM

IC50 [10]: 6.61 µM
IC50 [11]: 5.56 µM
SMILES: CC(C(=O)O)N1C(=O)/C(=C/C=C/c2ccc([N+](=O)[O-])o2)SC1=S (stereo not drawn) [2b, 2-((Z)-5-((E)-3-(5-Nitrofuran-2-yl)allylidene)-4-oxo-2-thioxothiazolidin-3-yl)propanoic acid]

SMILES: O=C(O)CCCN1C(=O)/C(=C/C=C/c2ccc([N+](=O)[O-])o2)SC1=S [13b, 4-((Z)-5-((E)-3-(5-Nitrofuran-2-yl)allylidene)-4-oxo-2-thioxothiazolidin-3-yl)butanoic acid]
GI50 [1]: 1.61 µM
GI50 [2]: 0.53 µM
CC50 [2]: 36 µM
CC50 [3]: 6.12 µM
GI50 ([4]; Homo sapiens): 0.38 µM
CC50 ([4]; Homo sapiens): 8.73 µM
GI50 [4]: 0.32 µM
TGI [4]: 1.99 µM and 1.37 µM
GI50 [5]: 0.17 µM
TGI [5]: 1.15 µM and 0.64 µM
GI50 [7]: 0.46 µM
growth GP ([8]; DU-145, 10 μM, 48 h): -99.43%
GI50 ([8]; DU-145, 48 h): 1.15 µM
TGI ([8]; DU-145, 48 h): 2.32 µM and 2.83 µM
CC50 ([8]; human, 48 h): 7.01 µM
growth GP ([9]; OVCAR-4, 10 μM, 48 h): -97.74%
GI50 ([9]; OVCAR-4, 48 h): 1.56 µM
TGI ([9]; OVCAR-4, 48 h): 2.58 µM and 2.94 µM
CC50 ([9]; human, 48 h): 5.54 µM
IC50 [10]: 3.97 µM
IC50 [11]: 1.77 µM
GI50 [12]: 1.05 µM
TGI [12]: 4.24 µM and 2.52 µM
GI50 ([12]; Homo sapiens): 1.83 µM
CC50 ([12]; Homo sapiens): 9.84 µM
MG_MID TGI [13]: 2.09 µM
GI50 [14]: 0.4 µM
TGI [14]: 3.10 µM and 2.02 µM
growth GP ([15]; HOP-62, 10 μM, 48 h): -94.79%
TGI [15]: 2.67 µM and 1.90 µM
growth GP [16]: -98.91%
CC50 [18]: 5.84 µM
GI50 [19]: 1.16 µM
CC50 [19]: 5.75 µM
GI50 [20]: 0.41 µM
CC50 [20]: 8.99 µM
GI50 [21]: 0.31 µM
CC50 [22]: 6.05 µM
growth GP ([22]; SNB-19, 10 μM, 48 h): -96.10%
TGI [22]: 3.16 µM and 2.10 µM
CC50 [23]: 5.14 µM
GI50 [24]: 0.12 µM
TGI [24]: 0.82 µM and 0.78 µM
GI50 [25]: 1.09 µM
CC50 [25]: 4.92 µM
GI50 [26]: 0.11 µM
TGI [26]: 0.52 µM and 0.33 µM
GI50 ([26]; Homo sapiens): 0.18 µM
GI50 [27]: 0.82 µM

SMILES: O=C(O)CCN1C(=O)/C(=C/C=C/c2ccc([N+](=O)[O-])o2)SC1=S [12b, 3-((Z)-5-((E)-3-(5-Nitrofuran-2-yl)allylidene)-4-oxo-2-thioxothiazolidin-3-yl)propanoic acid]
GI50 [1]: 1.68 µM
GI50 [2]: 1.09 µM
CC50 [2]: 37.4 µM
GI50 [3]: 1.44 µM
CC50 [3]: 5.68 µM
TGI [3]: 2.86 µM
GI50 ([4]; Homo sapiens): 1.1 µM
CC50 ([4]; Homo sapiens): 14.1 µM
TGI [4]: 3.67 µM
TGI [5]: 3.57 µM
TGI [6]: 3.37 µM
GI50 [7]: 1.84 µM
CC50 [7]: 28.2 µM
TGI ([8]; DU-145, 48 h): 10.6 µM
TGI ([9]; OVCAR-4, 48 h): 3.79 µM
IC50 [10]: 6.66 µM
IC50 [11]: 1.82 µM
TGI [12]: 9.26 µM
GI50 ([12]; Homo sapiens): 2.69 µM
CC50 ([12]; Homo sapiens): 31.1 µM
MG_MID TGI [13]: 4.09 µM
TGI [14]: 10.6 µM
TGI [15]: 3.57 µM
GI50 [15]: 1.61 µM
growth GP [16]: -96.95%
TGI [16]: 3.65 µM
GI50 [17]: 1.48 µM
CC50 [17]: 6.31 µM
TGI [17]: 3.05 µM
GI50 [18]: 2.02 µM
CC50 [18]: 7.19 µM
GI50 [19]: 1.79 µM
CC50 [19]: 8.07 µM
GI50 [20]: 0.58 µM
CC50 [20]: > 100 µM
GI50 [22]: 2.3 µM
CC50 [22]: 22.9 µM
TGI [22]: 6.37 µM
GI50 [23]: 1.43 µM
CC50 [23]: 5.7 µM
TGI [23]: 2.86 µM
TGI [24]: 0.87 µM
GI50 [25]: 2.61 µM
CC50 [25]: 33.3 µM
TGI [26]: 3.50 µM
GI50 [27]: 2.55 µM

From publication PMC12655351, “Synthesis and Anticancer Activity Evaluation of New 5-((5-Nitrofuran-2-yl)allylidene)-2-thioxo-4-thiazolidinones” (Pharmaceuticals, 2025)
